Series [1] concerns MCF-7 cell line (human breast adenocarcinoma). In words: MTT cytotoxicity assay, MCF-7 cells. Format: cell-based. The following applies: for IC 50 (μg/mL) MCF-7 / IC50: MTT; for IC50: Homo sapiens, read-out: IC 50 (μg/mL) MCF-7; for effect on cell viability in MCF-7 cells: different concentrations, Figure 6, 24 h. How it is done:
(§1) FBS, PBS, trypsin, penicillin, streptomycin, DMSO, 3-[4,5-dimethyl thiazol-2-yl]-2,5-diphenyltetrazoliumbromide (MTT), Triton X-100, and RPMI-1640 medium supplemented with 10% heat inactivated FBS were purchased from Sigma-Aldrich. The AGS, HEK293, and MCF7 cell lines were purchased from the National Cell Bank of Iran, Pasteur Institute of Iran, Tehran, Iran.
(§2) In this research, the effects of synthesized compounds on the viability of MCF-7, AGS, and HEK cells were evaluated at various concentrations (0.39–200 μg/mL) utilizing 3-(4,5-dimethylthiazol-2-yl)-2,5-diphenyltetrazolium bromide (MTT) assay. After thawing, the cells were cultured in RPMI 1640 medium containing 10% FBS, penicillin (100 U/mL), and streptomycin ([…]) at 37 °C in a humidified 5% CO2 incubator. The cells were seeded in a 96-well plate at a density of 5000 cells per well (the cells were stained with trypan blue and counted with a hemocytometer). The cells were incubated overnight at 37 °C before cell viability testing. A stock suspension of each of the synthesized compounds at 50 mg/mL in distilled water was prepared. After that, fresh suspensions of different concentrations of the synthesized compounds (2-fold serial dilutions from 0.39 to 200 μg/mL) were made using serial dilutions of the stock suspensions of the synthesized compounds in the RPMI 1640 medium immediately before use. Next, 200 μL of suspension (different concentrations of synthesized compounds) was added to each well of the micropentaplicates. The cells were incubated for 24 and 48 h under the same conditions. Wells without any synthesized compounds served as a negative control. The experiments were performed in pentaplicate for each concentration. To assess cell survival, 100 μL of MTT solution (2 mg/mL in PBS) was added to each well and incubated for 3 h at 37 °C to produce insoluble formazan. Next, 100 μL of DMSO was added to dissolve the formazan crystals, and the absorbance was measured using an Infinite M200 ELISA plate reader (Tecan, Männedorf, Switzerland) at 570 nm, with 630 nm as a reference wave length. The percentage of cell viability was calculated via the formula (A test /A control ) ×100, in which A test is the average absorbance of the treated cells and A control is the average absorbance of the negative control.
(§3) Cytotoxicity assessment of the cell lines were performed in pentaplicate, and the results were computed as mean ±SD. The experimental results were analyzed using one-way ANOVA analysis in SPSS 16.0 for Windows (SPSS Inc., Chicago, IL, USA) and P <0.05 was considered significant. The IC 50 values were calculated by nonlinear regression analysis using Finney probit analysis in SPSS.

Series [2] deals with HEK293 cells (human embryonic kidney). Description: MTT cytotoxicity assay, HEK293 normal cells. In kind it is cell-based. The note with it: for IC50: Homo sapiens, read-out: IC 50 (μg/mL) HEK293; for cytotoxicity against HEK293 cells compared to the other analogs: pyridine derivatives, Figure 6, 24 h. How it is done: as §1, §2, §3
(Formazan colour is commonly taken as a measure of viable cells.)

In series [3] the test system is AGS cells (gastric adenocarcinoma). Description: MTT cytotoxicity assay, AGS cells. In kind it is cell-based, human. The note with it: for IC50: Homo sapiens, AGS cells, MTT. How it is done:
as §1
In this research, the effects of synthesized compounds on the viability of MCF-7, AGS, and HEK cells were evaluated at various concentrations (0.39–200 μg/mL) utilizing 3-(4,5-dimethylthiazol-2-yl)-2,5-diphenyltetrazolium bromide (MTT) assay. After thawing, the cells were cultured in RPMI 1640 medium containing 10% FBS, penicillin (100 U/mL), and streptomycin ([…]) at 37 °C in a humidified 5% CO2 incubator. The cells were seeded in a 96-well plate at a density of 5000 cells per well (the cells were stained with trypan blue and counted with a hemocytometer). The cells were incubated overnight at 37 °C before cell viability testing. A stock suspension of each of the synthesized compounds at 50 mg/mL in distilled water was prepared. […] Next, 100 μL of DMSO was added to dissolve the formazan crystals, and the absorbance was measured using an Infinite M200 ELISA plate reader (Tecan, Männedorf, Switzerland) at 570 nm, with 630 nm as a reference wave length. The percentage of cell viability was calculated via the formula (A test /A control ) ×100, in which A test is the average absorbance of the treated cells and A control is the average absorbance of the negative control.
as §3

Setting [4] is: MCF-7 cells, Table 7, 24 h per Figure 6.
Setting [5] is: HEK293 cells, MTT, Table 7, 24 h per Figure 6.
The mark [6] stands for this setting: MCF7, 24 h, MCF-7 cells, Table 7, 24 h per Figure 6.

Converted amounts (≈) assume the structure as drawn. Like-named read-outs stand apart in the source and are kept apart here.

`CCOC(=O)C1=C(C)NC(=O)NC1c1cccs1` (stereo not drawn) [4m]: the “IC 50 (μg/mL) MCF-7” value in series [1] (setting [4]) turned out to be 128.00 µg/mL (≈ 481 µM). In addition, the “IC 50 (μg/mL) HEK293” value in series [2] (setting [5]) amounted to 146.25 µg/mL (≈ 549 µM).
Take `CCOC(=O)C1=C(C)NC(=O)NC1c1c(Cl)cccc1Cl` (stereo not drawn) [4r]: the IC50 in series [3] (24 h, read-out: IC 50 (μg/mL) AGS (24 h)) was 30 µg/mL (≈ 91.1 µM); in series [3] (48 h, read-out: IC 50 (μg/mL) AGS (48 h)), 4.97 µg/mL (≈ 15.1 µM); in series [1] (MCF7, MCF-7 cells, Table 6 (DHPMs 4j, 4r)), 0.17 µg/mL (≈ 0.516 µM); in series [2] (HEK293), > 200 µg/mL. The “death of AGS cells” value in series [3] (after treatment for 24 and 48 h, different concentrations (Figure 5)) is on record as ≥ 50%.
Regarding `N#Cc1c(-c2cccc(Cl)c2)cc(-c2ccccc2)nc1N` [5c, 2-Amino-4-(3-chlorophenyl)-6-phenylnicotinonitrile], the melting point – broadly, the temperature of the solid-liquid transition – was 168 to 170 °C. In addition, the IC50 in series [1] (setting [6]) stood at 307 µg/mL (≈ 1000 µM). The IC50 in series [2] (setting [5]) is > 1000 µg/mL.
In the case of `N#Cc1c(-c2ccccc2F)cc(-c2ccccc2)nc1N` [5g], the IC50 in series [1] (setting [6]) was 71.9 µg/mL (≈ 249 µM); in series [2] (setting [5]) it was 950 µg/mL (≈ 3280 µM). Further, the “effect on cell viability in MCF-7 cells” value in series [1] is given as “considerable decrease in cell viability”. The “cytotoxicity against HEK293 cells compared to the other analogs” value in series [2] is “less cytotoxic”.
`N#Cc1c(-c2c(Cl)cccc2Cl)cc(-c2ccccc2)nc1N` [5l, 2-Amino-4-(2,6-dichlorophenyl)-6-phenylnicotinonitrile]: the melting point is 174 to 176 °C.
Take `N#Cc1c(-c2ccc(Cl)cc2Cl)cc(-c2ccccc2)nc1N` [5m, 2-Amino-4-(2,4-dichlorophenyl)-6-phenylnicotinonitrile]: the melting point was 179 to 181 °C. Besides, the IC50 in series [1] (setting [6]) is 82 µg/mL (≈ 241 µM). For the same compound, in series [1] (setting [4]), the “IC 50 (μg/mL) MCF-7” value is 82.90 µg/mL (≈ 244 µM). In series [1], the “effect on cell viability in MCF-7 cells” value is listed as “considerable decrease in cell viability”. The IC50 in series [2] (setting [5]) was 259 µg/mL (≈ 760 µM). Further, the “cytotoxicity against HEK293 cells compared to the other analogs” value in series [2] is given as “less cytotoxic”.

The values are drawn from paper PMC7751820, “Synthesis, cytotoxic assessment, and molecular docking studies of 2,6-diaryl-substituted pyridine and 3,4- dihydropyrimidine-2(1H)-one scaffolds” (Turkish Journal of Chemistry, 2020).
